Experimental data as given in patent US20140106968A1, “SUBSTITUTED 1,2,4-TRIAZINE-3,5-DIONES AS HERBICIDES” (E I Du Pont De Nemours and Company, priority 2012, published 2014).

Legend:
Type in all cases: in vivo
[1] = test system: barnyardgrass (Echinochloa crus-galli); test: Test A greenhouse pre-/postemergence herbicide test, barnyardgrass; conditions: 0 to 100 scale, 0 no effect, 100 complete control, approx. 10 days
From the text: (§1) Seeds of plant species selected from barnyardgrass (Echinochloa crus-galli), large (Lg) crabgrass (Digitaria sanguinalis), giant foxtail (Setaria faberii), morningglory (Ipomoea spp.), pigweed (redroot pigweed, Amaranthus retroflexus), velvetleaf (Abutilon theophrasti), winter wheat (Triticum aestivum), and corn (Zea mays) were planted into a blend of loam soil and sand and treated preemergence with a directed soil spray using test chemicals formulated in a non-phytotoxic solvent mixture which included a surfactant. At the same time these species were also treated with postemergence applications of test compounds formulated in the same manner. Plants ranged in height from 2 to 10 cm and were in the one- to two-leaf stage for the postemergence treatment. Treated plants and untreated controls were maintained in a greenhouse for approximately 10 days, after which time all treated plants were visually compared to untreated controls and visually evaluated for injury. Plant response ratings, summarized in Table A, are based on a 0 to 100 scale where 0 is no effect and 100 is complete control. A dash (-) response means no test result.

corn (Zea mays) = test: Test A greenhouse pre-/postemergence herbicide test, corn; conditions: 0 to 100 scale, 0 no effect, 100 complete control, approx. 10 days
From the text: as §1

[2] = test system: large (Lg) crabgrass (Digitaria sanguinalis); test: Test A greenhouse pre-/postemergence herbicide test, large crabgrass; conditions: 0 to 100 scale, 0 no effect, 100 complete control, approx. 10 days
From the text: as §1

[3] = test system: giant foxtail (Setaria faberii); test: Test A greenhouse pre-/postemergence herbicide test, giant foxtail; conditions: 0 to 100 scale, 0 no effect, 100 complete control, approx. 10 days
From the text: as §1

[4] = test system: morningglory (Ipomoea spp.); test: Test A greenhouse pre-/postemergence herbicide test, morningglory; conditions: 0 to 100 scale, 0 no effect, 100 complete control, approx. 10 days
From the text: as §1

[5] = test system: pigweed (redroot pigweed, Amaranthus retroflexus); test: Test A greenhouse pre-/postemergence herbicide test, pigweed; conditions: 0 to 100 scale, 0 no effect, 100 complete control, approx. 10 days
From the text: as §1

[6] = test system: velvetleaf (Abutilon theophrasti); test: Test A greenhouse pre-/postemergence herbicide test, velvetleaf; conditions: 0 to 100 scale, 0 no effect, 100 complete control, approx. 10 days
From the text: as §1

[7] = test system: winter wheat (Triticum aestivum); test: Test A greenhouse pre-/postemergence herbicide test, winter wheat; conditions: 0 to 100 scale, 0 no effect, 100 complete control, approx. 10 days
From the text: as §1

[8] = test system: barnyardgrass (Echinochloa crus-galli); test: Test B flooded paddy test, barnyardgrass; conditions: scale of 0 to 100, 0 no effect, 100 complete control, 13 to 15 days
Protocol: (§2) Plant species in the flooded paddy test selected from rice (Oryza sativa), small-flower umbrella sedge (Cyperus difformis), duck salad (Heteranthera limosa), and barnyardgrass (Echinochloa crus-galli) were grown to the 2-leaf stage for testing. At time of treatment, test pots were flooded to 3 cm above the soil surface, treated by application of test compounds directly to the paddy water, and then maintained at that water depth for the duration of the test. Treated plants and controls were maintained in a greenhouse for 13 to 15 days, after which time all species were visually compared to controls and visually evaluated. Plant response ratings, summarized in Table B, are based on a scale of 0 to 100 where 0 is no effect and 100 is complete control. A dash (-) response means no test result.

[9] = test system: duck salad (Heteranthera limosa); test: Test B flooded paddy test, duck salad; conditions: scale of 0 to 100, 0 no effect, 100 complete control, 13 to 15 days
Protocol: as §2

rice (Oryza sativa) = test: Test B flooded paddy test, rice; conditions: scale of 0 to 100, 0 no effect, 100 complete control, 13 to 15 days
Protocol: as §2

[10] = test system: small-flower umbrella sedge (Cyperus difformis); test: Test B flooded paddy test, small-flower umbrella sedge; conditions: scale of 0 to 100, 0 no effect, 100 complete control, 13 to 15 days
Protocol: as §2

In the case of Cn1nc(C(=O)C2=C(O)CCCC2=O)c(=O)n(CCS(=O)(=O)CC2CC2)c1=O [Compound 3, 4-[2-[(cyclopropylmethyl)sulfonyl]ethyl]-6-[(2-hydroxy-6-oxo-1-cyclohexen-1-yl)carbonyl]-2-methyl-1,2,4-triazine-3,5(2H,4H)-dione], the “Plant response rating, Barnyardgrass” value ([1]; 31 g ai/ha Postemergence) is reported as 20, the “Plant response rating, Barnyardgrass” value ([1]; 31 g ai/ha Preemergence) is reported as 0 and the “Plant response rating, Barnyardgrass” value ([1]; 125 g ai/ha Postemergence) is reported as 90. The “Plant response rating, Barnyardgrass” value ([1]; 125 g ai/ha Preemergence) was 40, the “Plant response rating, Corn” value (corn (Zea mays); 31 g ai/ha Postemergence) was 0 and the “Plant response rating, Corn” value (corn (Zea mays); 31 g ai/ha Preemergence) was 0. For the same compound, the “Plant response rating, Corn” value (corn (Zea mays); 125 g ai/ha Postemergence) was 0, the “Plant response rating, Corn” value (corn (Zea mays); 125 g ai/ha Preemergence) was 0 and the “Plant response rating, Crabgrass, Large” value ([2]; 31 g ai/ha Postemergence) was 30. The “Plant response rating, Crabgrass, Large” value ([2]; 31 g ai/ha Preemergence) was 10, the “Plant response rating, Crabgrass, Large” value ([2]; 125 g ai/ha Postemergence) was 90 and the “Plant response rating, Crabgrass, Large” value ([2]; 125 g ai/ha Preemergence) was 40. For the same compound, the “Plant response rating, Foxtail, Giant” value ([3]; 31 g ai/ha Postemergence) was 0, the “Plant response rating, Foxtail, Giant” value ([3]; 31 g ai/ha Preemergence) was 0 and the “Plant response rating, Foxtail, Giant” value ([3]; 125 g ai/ha Postemergence) was 40. For the same compound, the “Plant response rating, Foxtail, Giant” value ([3]; 125 g ai/ha Preemergence) was 0, the “Plant response rating, Morningglory” value ([4]; 31 g ai/ha Postemergence) was 60 and the “Plant response rating, Morningglory” value ([4]; 125 g ai/ha Postemergence) was 60. For the same compound, the “Plant response rating, Morningglory” value ([4]; 125 g ai/ha Preemergence) was 10, the “Plant response rating, Pigweed” value ([5]; 31 g ai/ha Postemergence) was 40 and the “Plant response rating, Pigweed” value ([5]; 31 g ai/ha Preemergence) was 20. For the same compound, the “Plant response rating, Pigweed” value ([5]; 125 g ai/ha Postemergence) was 100, the “Plant response rating, Pigweed” value ([5]; 125 g ai/ha Preemergence) was 100 and the “Plant response rating, Velvetleaf” value ([6]; 31 g ai/ha Postemergence) was 100. For the same compound, the “Plant response rating, Velvetleaf” value ([6]; 31 g ai/ha Preemergence) was 0, the “Plant response rating, Velvetleaf” value ([6]; 125 g ai/ha Postemergence) was 100 and the “Plant response rating, Velvetleaf” value ([6]; 125 g ai/ha Preemergence) was 30. For the same compound, the “Plant response rating, Wheat” value ([7]; 31 g ai/ha Postemergence) was 0, the “Plant response rating, Wheat” value ([7]; 31 g ai/ha Preemergence) was 0 and the “Plant response rating, Wheat” value ([7]; 125 g ai/ha Postemergence) was 30. The “Plant response rating, Wheat” value ([7]; 125 g ai/ha Preemergence) was 10, the “Plant response rating, Barnyardgrass” value ([8]; 31 g ai/ha Flood) was 0 and the “Plant response rating, Barnyardgrass” value ([8]; 62 g ai/ha Flood) was 0. The “Plant response rating, Barnyardgrass” value ([8]; 125 g ai/ha Flood) was 0, the “Plant response rating, Barnyardgrass” value ([8]; 250 g ai/ha Flood) was 20 and the “Plant response rating, Ducksalad” value ([9]; 31 g ai/ha Flood) was 0. For the same compound, the “Plant response rating, Ducksalad” value ([9]; 62 g ai/ha Flood) was 0, the “Plant response rating, Ducksalad” value ([9]; 125 g ai/ha Flood) was 0 and the “Plant response rating, Ducksalad” value ([9]; 250 g ai/ha Flood) was 85. The “Plant response rating, Rice” value (rice (Oryza sativa); 31 g ai/ha Flood) was 0, the “Plant response rating, Rice” value (rice (Oryza sativa); 62 g ai/ha Flood) was 0 and the “Plant response rating, Rice” value (rice (Oryza sativa); 125 g ai/ha Flood) was 0. For the same compound, the “Plant response rating, Rice” value (rice (Oryza sativa); 250 g ai/ha Flood) was 30, the “Plant response rating, Sedge, Umbrella” value ([10]; 31 g ai/ha Flood) was 0 and the “Plant response rating, Sedge, Umbrella” value ([10]; 62 g ai/ha Flood) was 0. For the same compound, the “Plant response rating, Sedge, Umbrella” value ([10]; 125 g ai/ha Flood) was 50 and the “Plant response rating, Sedge, Umbrella” value ([10]; 250 g ai/ha Flood) was 75.

For Cn1nc(C(=O)C2=C(O)CCCC2=O)c(=O)n(CCSCC2CC2)c1=O [Compound 4, 4-[2-[(cyclopropylmethyl)thio]ethyl]-6-[(2-hydroxy-6-oxo-1-cyclohexen-1-yl)carbonyl]-2-methyl-1,2,4-triazine-3,5(2H,4H)-dione], the “Plant response rating, Barnyardgrass” value ([1]; 31 g ai/ha Postemergence) was 0, the “Plant response rating, Barnyardgrass” value ([1]; 31 g ai/ha Preemergence) was 0 and the “Plant response rating, Barnyardgrass” value ([1]; 125 g ai/ha Postemergence) was 10. For the same compound, the “Plant response rating, Barnyardgrass” value ([1]; 125 g ai/ha Preemergence) was 0, the “Plant response rating, Corn” value (corn (Zea mays); 31 g ai/ha Postemergence) was 0 and the “Plant response rating, Corn” value (corn (Zea mays); 31 g ai/ha Preemergence) was 0. The “Plant response rating, Corn” value (corn (Zea mays); 125 g ai/ha Postemergence) was 0, the “Plant response rating, Corn” value (corn (Zea mays); 125 g ai/ha Preemergence) was 0 and the “Plant response rating, Crabgrass, Large” value ([2]; 31 g ai/ha Postemergence) was 0. The “Plant response rating, Crabgrass, Large” value ([2]; 31 g ai/ha Preemergence) was 0, the “Plant response rating, Crabgrass, Large” value ([2]; 125 g ai/ha Postemergence) was 10 and the “Plant response rating, Crabgrass, Large” value ([2]; 125 g ai/ha Preemergence) was 0. For the same compound, the “Plant response rating, Foxtail, Giant” value ([3]; 31 g ai/ha Postemergence) was 0, the “Plant response rating, Foxtail, Giant” value ([3]; 31 g ai/ha Preemergence) was 0 and the “Plant response rating, Foxtail, Giant” value ([3]; 125 g ai/ha Postemergence) was 0. For the same compound, the “Plant response rating, Foxtail, Giant” value ([3]; 125 g ai/ha Preemergence) was 0, the “Plant response rating, Morningglory” value ([4]; 31 g ai/ha Postemergence) was 10 and the “Plant response rating, Morningglory” value ([4]; 31 g ai/ha Preemergence) was 0. For the same compound, the “Plant response rating, Morningglory” value ([4]; 125 g ai/ha Postemergence) was 100, the “Plant response rating, Morningglory” value ([4]; 125 g ai/ha Preemergence) was 0 and the “Plant response rating, Pigweed” value ([5]; 31 g ai/ha Postemergence) was 10. The “Plant response rating, Pigweed” value ([5]; 31 g ai/ha Preemergence) was 0, the “Plant response rating, Pigweed” value ([5]; 125 g ai/ha Postemergence) was 50 and the “Plant response rating, Pigweed” value ([5]; 125 g ai/ha Preemergence) was 0. The “Plant response rating, Velvetleaf” value ([6]; 31 g ai/ha Postemergence) was 70, the “Plant response rating, Velvetleaf” value ([6]; 31 g ai/ha Preemergence) was 0 and the “Plant response rating, Velvetleaf” value ([6]; 125 g ai/ha Postemergence) was 90. The “Plant response rating, Velvetleaf” value ([6]; 125 g ai/ha Preemergence) was 0, the “Plant response rating, Wheat” value ([7]; 31 g ai/ha Postemergence) was 0 and the “Plant response rating, Wheat” value ([7]; 31 g ai/ha Preemergence) was 0. The “Plant response rating, Wheat” value ([7]; 125 g ai/ha Postemergence) was 10, the “Plant response rating, Wheat” value ([7]; 125 g ai/ha Preemergence) was 0 and the “Plant response rating, Barnyardgrass” value ([8]; 31 g ai/ha Flood) was 0. The “Plant response rating, Barnyardgrass” value ([8]; 62 g ai/ha Flood) was 0, the “Plant response rating, Barnyardgrass” value ([8]; 125 g ai/ha Flood) was 0 and the “Plant response rating, Barnyardgrass” value ([8]; 250 g ai/ha Flood) was 15. The “Plant response rating, Ducksalad” value ([9]; 31 g ai/ha Flood) was 0, the “Plant response rating, Ducksalad” value ([9]; 62 g ai/ha Flood) was 0 and the “Plant response rating, Ducksalad” value ([9]; 125 g ai/ha Flood) was 50. For the same compound, the “Plant response rating, Ducksalad” value ([9]; 250 g ai/ha Flood) was 65, the “Plant response rating, Rice” value (rice (Oryza sativa); 31 g ai/ha Flood) was 0 and the “Plant response rating, Rice” value (rice (Oryza sativa); 62 g ai/ha Flood) was 0. The “Plant response rating, Rice” value (rice (Oryza sativa); 125 g ai/ha Flood) was 15, the “Plant response rating, Rice” value (rice (Oryza sativa); 250 g ai/ha Flood) was 60 and the “Plant response rating, Sedge, Umbrella” value ([10]; 31 g ai/ha Flood) was 0. The “Plant response rating, Sedge, Umbrella” value ([10]; 62 g ai/ha Flood) was 0, the “Plant response rating, Sedge, Umbrella” value ([10]; 125 g ai/ha Flood) was 50 and the “Plant response rating, Sedge, Umbrella” value ([10]; 250 g ai/ha Flood) was 65.
